Assay results published in PMC8222254, “Self-assembly of an anion receptor with metal-dependent kinase inhibition and potent in vitro anti-cancer properties” (Nature Communications, 2021).
pIC50: −log10 of the molar value. Several values for one entry are separate records, joined by “and”; a condition that tells them apart may be missing. Identical values can stand only once. Like-named read-outs stand apart in the source and are kept apart here.

Legend:
Experiment in all cases: Chemosensitivity, 96 h continuous exposure, MTT assay;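 for SI (NPI): adult human brain neural progenitor non-cancer cells from an epilepsy surgery patient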;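 for Selectivity Index using the NPI non-cancer cell line: adult human brain neural progenitor non-cancer cells from an epilepsy surgery patient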
Type in all cases: cell-based, human
[1] = system: A549;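 for SI (NPI): adult human brain neural progenitor non-cancer cells from an epilepsy surgery patient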;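 for Selectivity Index using the NPI non-cancer cell line: adult human brain neural progenitor non-cancer cells from an epilepsy surgery patient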
Outline: (§1)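 Growth inhibition is measured by MTT after cells are dosed for 96 h without washout. The 50% growth-reduction concentration is then interpolated from the curves.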

[2] = system: ARPE-19 non-cancer cells
Outline: as §1

[3] = system: BxPC3
Outline: as §1

[4] = system: DLD-1
Outline: as §1

[5] = system: HCT116 p53+/+
Outline: as §1

[6] = system: MCF10A non-cancer cells
Outline: as §1

[7] = system: MiaPaCa2
Outline: as §1

Structure (SMILES): [Cu+2].[Cu+2].[Cu+2].c1ccc(-c2csc(NCCN(CCNc3nc(-c4ccccn4)cs3)CCNc3nc(-c4ccccn4)cs3)n2)nc1.c1ccc(-c2csc(NCCN(CCNc3nc(-c4ccccn4)cs3)CCNc3nc(-c4ccccn4)cs3)n2)nc1 [[L2Cu3]6+]
- pIC50 ([1]; A549, 96 h, MTT, individual run, read-out: IC50 values for each replicate): 6.59 and 6.72 and 6.60
- pIC50 ([1]; A549, 96 h, MTT, mean of at least 3 independent experiments, read-out: Mean IC50): 6.63
- pIC50 ([1]; A549, mean of replicates, read-out: Mean IC50): 6.63
- pIC50 ([1]; A549, read-out: Mean IC50 values): 6.63
- Selectivity index (ARPE19) ([1]; IC50 ARPE-19 / IC50 A549): 225.88
- Selectivity index (MCF10A) ([1]; IC50 MCF10A / IC50 A549): 207.12
- Selectivity Index using the NPI non-cancer cell line ([1]; IC50 NP1 / IC50 A549): 184.94
- SI (ARPE19) ([1]; mean IC50 ARPE-19 / mean IC50 A549): 225.88
- SI (MCF10A) ([1]; mean IC50 MCF10A / mean IC50 A549): 207.12
- SI (NPI) ([1]; mean IC50 NP1 / mean IC50 A549): 184.94
- Relative potency (+ anion to no anion), Ratio + anion:no anion ([1]; ratio of IC50, A549): 1
- Selectivity indices relative to ARPE-19, Ratio + anion:no anion ([1]; ratio of SI (ARPE-19), A549): 1
- Selectivity indices relative to MCF10A, Ratio + anion:no anion ([1]; ratio of SI (MCF 10A), A549): 1
- pIC50 ([2]; ARPE-19, 96 h, MTT, individual run, read-out: IC50 values for each replicate): 4.31 and 4.36 and 4.24 and 4.18 and 4.33
- pIC50 ([2]; ARPE-19, 96 h, MTT, mean of at least 3 independent experiments, read-out: Mean IC50): 4.28
- pIC50 ([2]; ARPE-19, mean of replicates, read-out: Mean IC50): 4.28
- pIC50 ([2]; ARPE-19 non-cancer, read-out: Mean IC50 values): 4.28
- Relative potency (+ anion to no anion), Ratio + anion:no anion ([2]; ratio of IC50, ARPE-19): 1
- pIC50 ([3]; BXPC3, mean of replicates, read-out: Mean IC50): 6.53
- pIC50 ([3]; BXPC3, read-out: Mean IC50 values): 6.53
- pIC50 ([3]; BxPC3, 96 h, MTT, individual run, read-out: IC50 values for each replicate): 6.65 and 6.57 and 6.35 and 6.63
- pIC50 ([3]; BxPC3, 96 h, MTT, mean of at least 3 independent experiments, read-out: Mean IC50): 6.53
- Selectivity index (ARPE19) ([3]; IC50 ARPE-19 / IC50 BXPC3): 179.62
- Selectivity index (MCF10A) ([3]; IC50 MCF10A / IC50 BXPC3): 164.71
- Selectivity Index using the NPI non-cancer cell line ([3]; IC50 NP1 / IC50 BXPC3): 147.06
- SI (ARPE19) ([3]; mean IC50 ARPE-19 / mean IC50 BxPC3): 179.62
- SI (MCF10A) ([3]; mean IC50 MCF10A / mean IC50 BxPC3): 164.71
- SI (NPI) ([3]; mean IC50 NP1 / mean IC50 BxPC3): 147.06
- Relative potency (+ anion to no anion), Ratio + anion:no anion ([3]; ratio of IC50, BXPC3): 1
- Selectivity indices relative to ARPE-19, Ratio + anion:no anion ([3]; ratio of SI (ARPE-19), BXPC3): 1
- Selectivity indices relative to MCF10A, Ratio + anion:no anion ([3]; ratio of SI (MCF 10A), BXPC3): 1
- pIC50 ([4]; DLD-1, 96 h, MTT, mean of at least 3 independent experiments, read-out: Mean IC50): 6.88
- pIC50 ([4]; DLD-1, mean of replicates, read-out: Mean IC50): 6.88
- pIC50 ([4]; DLD-1, read-out: Mean IC50 values): 6.88
- Selectivity index (ARPE19) ([4]; IC50 ARPE-19 / IC50 DLD-1): 398.71
- Selectivity index (MCF10A) ([4]; IC50 MCF10A / IC50 DLD-1): 365.61
- Selectivity Index using the NPI non-cancer cell line ([4]; IC50 NP1 / IC50 DLD-1): 326.44
- SI (ARPE19) ([4]; mean IC50 ARPE-19 / mean IC50 DLD-1): 398.71
- SI (MCF10A) ([4]; mean IC50 MCF10A / mean IC50 DLD-1): 365.61
- SI (NPI) ([4]; mean IC50 NP1 / mean IC50 DLD-1): 326.44
- Relative potency (+ anion to no anion), Ratio + anion:no anion ([4]; ratio of IC50, DLD-1): 1
- Selectivity indices relative to ARPE-19, Ratio + anion:no anion ([4]; ratio of SI (ARPE-19), DLD-1): 1
- Selectivity indices relative to MCF10A, Ratio + anion:no anion ([4]; ratio of SI (MCF 10A), DLD-1): 1
- pIC50 ([5]; HCT116 p53+/+, 96 h, MTT, individual run, read-out: IC50 values for each replicate): 6.62 and 6.27 and 6.28 and 6.30 and 6.17
- pIC50 ([5]; HCT116 p53+/+, 96 h, MTT, mean of at least 3 independent experiments, read-out: Mean IC50): 6.30
- pIC50 ([5]; HCT116 p53+/+, mean of replicates, read-out: Mean IC50): 6.30
- pIC50 ([5]; HCT116 p53+/+, read-out: Mean IC50 values): 6.30
- Selectivity index (ARPE19) ([5]; IC50 ARPE-19 / IC50 HCT116 p53+/+): 106.11 and 106.2
- Selectivity index (MCF10A) ([5]; IC50 MCF10A / IC50 HCT116 p53+/+): 97.30
- Selectivity Index using the NPI non-cancer cell line ([5]; IC50 NP1 / IC50 HCT116 p53+/+): 86.88
- SI (ARPE19) ([5]; mean IC50 ARPE-19 / mean IC50 HCT116 p53+/+): 106.11
- SI (MCF10A) ([5]; mean IC50 MCF10A / mean IC50 HCT116 p53+/+): 97.30
- SI (NPI) ([5]; mean IC50 NP1 / mean IC50 HCT116 p53+/+): 86.88
- Relative potency (+ anion to no anion), Ratio + anion:no anion ([5]; ratio of IC50, HCT116 p53+/+): 1
- Selectivity indices relative to ARPE-19, Ratio + anion:no anion ([5]; ratio of SI (ARPE-19), HCT116 p53+/+): 1
- Selectivity indices relative to MCF10A, Ratio + anion:no anion ([5]; ratio of SI (MCF 10A), HCT116 p53+/+): 1
- pIC50 ([6]; MCF10A non-cancer, read-out: Mean IC50 values): 4.32
- pIC50 ([6]; MCF10A, 96 h, MTT, individual run, read-out: IC50 values for each replicate): 4.28 and 4.24 and 4.41 and 4.36 and 4.31
- pIC50 ([6]; MCF10A, 96 h, MTT, mean of at least 3 independent experiments, read-out: Mean IC50): 4.32
- pIC50 ([6]; MCF10A, mean of replicates, read-out: Mean IC50): 4.32
- Relative potency (+ anion to no anion), Ratio + anion:no anion ([6]; ratio of IC50, MCF10A): 1
- Selectivity index (ARPE19) ([7]; IC50 ARPE-19 / IC50 MiaPaCa2): 4.46
- Selectivity index (MCF10A) ([7]; IC50 MCF10A / IC50 MiaPaCa2): 4.09
- Selectivity Index using the NPI non-cancer cell line ([7]; IC50 NP1 / IC50 MiaPaCa2): 3.65
- pIC50 ([7]; MiaPaCa2, 96 h, MTT, individual run, read-out: IC50 values for each replicate): 4.77 and 5.18 and 5.20 and 5.28 and 4.75
- pIC50 ([7]; MiaPaCa2, 96 h, MTT, mean of at least 3 independent experiments, listed as [L2Cu3]^6+, read-out: Mean IC50): < 5.00
- pIC50 ([7]; MiaPaCa2, 96 h, MTT, mean of at least 3 independent experiments, read-out: Mean IC50): 4.93
- pIC50 ([7]; MiaPaCa2, mean of replicates, read-out: Mean IC50): 4.93
- pIC50 ([7]; MiaPaCa2, read-out: Mean IC50 values): 4.93
- SI (ARPE19) ([7]; mean IC50 ARPE-19 / mean IC50 MiaPaCa2): 4.46
- SI (MCF10A) ([7]; mean IC50 MCF10A / mean IC50 MiaPaCa2): 4.09
- SI (NPI) ([7]; mean IC50 NP1 / mean IC50 MiaPaCa2): 3.65
- Relative potency (+ anion to no anion), Ratio + anion:no anion ([7]; ratio of IC50, MiaPaCa2): 1
- Selectivity indices relative to ARPE-19, Ratio + anion:no anion ([7]; ratio of SI (ARPE-19), MiaPaCa2): 1
- Selectivity indices relative to MCF10A, Ratio + anion:no anion ([7]; ratio of SI (MCF 10A), MiaPaCa2): 1
